# Test results from patent publication US6048894A, “Substituted amide derivatives” (Banyu Pharmaceutical Co., Ltd., priority 1996, dated 2000).
# Biological target: T1, protein-farnesyl transferase (PFT) (Rattus norvegicus, UniProt Q02293+Q04631)
# T1 construct: a soluble fraction of rat's brain was fractionated; from tissue; host or cells: rat brain, soluble fraction, 30-50% ammonium sulfate cut, Q-Sepharose chromatography
# Experiment: Inhibitory activities against protein-farnesyl transferase (PFT), IC50
# Format: biochemical
# Settings: PFT from rat brain (Q-sepharose fraction); prenyl acceptor H-ras protein or biotin-added Lys-Thr-Ser-Cys-Val-Ile-Met (not stated which for Table 1); [3H]-FPP 0.6 μM; 37° C., 20 min; read-out: 50% inhibitory concentrations against PFT activities, IC50
# Description: PFT was separated in such a manner that a soluble fraction of rat's brain was fractionated by means of 30%-50% saturated ammonium sulfate, further dialyzed and then subjected to column chromatography by Q-sepharose™ (manufactured by Pharmacia) (Reiss et al., Cell, vol. 62, pp. 81-88 (1990)).
# Measurement of PFT activities was conducted by using, as a prenyl acceptor, H-ras protein or a peptide corresponding to the C-terminal 7 amino acid residues of K-rasB protein which had biotin added to the N-terminal (biotin-added Lys-Thr-Ser-Cys-Val-Ile-Met) and, as a prenyl donor, [^3 H]-labeled farnesyl pyrophosphate (FPP) (Reiss et al., Methods: A companion to Methods in Enzymology, vol. 1, No. 3, pp. 241-245 (1990)).
# The [^3 H]-labeled farnesyl pyrophosphate (22.5 Ci/mmol) was purchased from New England Nuclear Co. Non-labeled farnesyl pyrophosphate was chemically synthesized from ditrethylammonium phosphate, trans-trans-farnesol and trichloroacetonitrile and purified by a XAD-2-resin column and diethylaminoethylcellulose (Cornforth et al., Methods in Enzymology, vol. 15, pp. 385-390 (1969)). […]
# The enzymatic reaction product containing H-ras protein as the prenyl acceptor, was analyzed by SDS-PAGE (sodium dodecyl sulfate/polyacrylamide gel electrophoresis). […]
# The measurement of PFT activities using H-ras protein as the prenyl receptor, was also analyzed by a rapid separate method. […]
row,IC50,Structure (SMILES)
1,7.8 nM,CCOC(=O)/C=C/[C@@H](Cc1ccc(C(=O)Nc2ccccc2)o1)[C@@H](C)N(Cc1ccc2ccccc2c1)C(=O)C(O)=C(CC(=O)O)C(=O)OCC (relative stereo) [Example 4]
2,3.1 nM,"CCOC(=O)C(CC(=O)O)=C(O)C(=O)N(Cc1ccc2ccccc2c1)[C@H](C)[C@@H](Cc1ccc(C(=O)Nc2ccccc2)o1)C(=O)OC(C)C (racemic) [Example 2, 3-(ethoxycarbonyl)-4-hydroxy-4-[N-[(1RS,2RS)-2-(isopropoxycarbonyl)-1-methyl-3-{5-(phenylcarbamoyl)-2-furyl}propyl]-N-(2-naphthylmethyl)carbamoyl]-3-butenoic acid]"
